Results on three compounds are retold here after patent publication US9057727B2, “Screening methods using G-protein coupled receptors and related compositions” (The General Hospital Corporation, priority 2007, dated 2015).

Entries after “also recorded” stand apart in the source; their conditions may differ. Square brackets hold non-standard residues; d marks the D form. Peptide text beside a SMILES is read from it. hArg = N=C(N)NCCCC[C@H](N)C(=O)O; Aib = CC(C)(N)C(=O)O

For assay [1], the target named is T1, ROS 17/2.8 cells (endogenous rat PTHR) (Rattus norvegicus, UniProt P25961).
T1 construct: the rat osteoblastic cell line ROS17/2.8, which endogenously expresses the rat PTHR; endogenous in cells; host or cells: ROS 17/2.8 rat osteosarcoma cells (membranes or intact cells)
T1 sequence (P25961 27-591): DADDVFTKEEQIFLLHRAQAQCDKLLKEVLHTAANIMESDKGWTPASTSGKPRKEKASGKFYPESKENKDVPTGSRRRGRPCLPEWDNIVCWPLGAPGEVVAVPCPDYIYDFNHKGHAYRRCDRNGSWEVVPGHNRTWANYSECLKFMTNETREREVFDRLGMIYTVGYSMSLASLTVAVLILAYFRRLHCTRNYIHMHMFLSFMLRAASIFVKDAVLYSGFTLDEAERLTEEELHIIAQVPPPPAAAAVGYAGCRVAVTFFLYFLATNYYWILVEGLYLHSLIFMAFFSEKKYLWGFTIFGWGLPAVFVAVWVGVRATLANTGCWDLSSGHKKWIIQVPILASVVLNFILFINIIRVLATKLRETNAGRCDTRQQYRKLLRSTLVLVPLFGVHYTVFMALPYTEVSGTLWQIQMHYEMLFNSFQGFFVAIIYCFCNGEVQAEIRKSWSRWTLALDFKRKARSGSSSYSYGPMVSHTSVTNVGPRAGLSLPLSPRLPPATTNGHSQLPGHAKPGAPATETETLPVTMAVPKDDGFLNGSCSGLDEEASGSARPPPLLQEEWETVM
In words: Acute cAMP response in ROS 17/2.8 rat osteoblastic cells. The settings on record: 10^−7 M, hPTH(1-28) 10^−6 M, basal 3.7±0.4. The assay is classed as cell-based.

The nature of assay [2]: Plasma cAMP in mice after subcutaneous injection. The format is in vivo. How it is done:
FIGS. 9A-9D are graphs showing in vivo plasma cAMP levels in mice treated with PTH analogs. Wild-type mice were injected subcutaneously with vehicle (0.9% NaCl/0.05% Tween-20), or vehicle containing a PTH peptide at a dose-level of 10 to 1,000 nmol of peptide per kg of body weight, and at indicated times after injection, blood was withdrawn from the tail vein, and the amount of cAMP in the resulting plasma was quantified by radioimmuno assay. Each curve corresponds to a peptide at a defined concentration, as indicated in the graph keys. The plasma cAMP concentrations are plotted as picomole per μl plasma.
Wild-type mice were injected subcutaneously with vehicle (0.9% NaCl/0.05% Tween-20), or vehicle containing a PTH peptide so as to achieve a concentration ranging from 10 to 1000 nmol/kg of body weight. At the indicated times after injection, blood was withdrawn from the tail vein, and the amount of cAMP in the resulting plasma was quantified by radioimmuno assay (FIGS. 9A-9D).
Wild-type mice were injected subcutaneously with vehicle (0.9% NaCl/0.05% Tween-20), or vehicle containing a PTH peptide at a dose level of 10 to 1000 nmol/kg of body weight. At indicated times after injection, blood was withdrawn from the tail vein, and the amount of cAMP in the resulting plasma was quantified by radioimmuno assay. Ionized calcium in serum was measured as above and phosphate was measured by a U.V. spectroscopic kit assay.

Assay [3] can be described thus: Plasma phosphate and serum ionized calcium in mice after subcutaneous injection. The assay is classed as in vivo. The settings on record: 50 nmol/kg s.c. Here is the method:
FIGS. 10A and 10B are graphs showing in vivo plasma phosphate and serum ionized calcium levels in mice treated with PTH analogs. […] Serum ionized calcium concentrations were determined using a Chiron Diagnostics Model 634 Ca^++/pH analyzer. Data in A are means (±s.e.m.) of one experiment using six mice (n=6) for each injection condition; similar results were obtained in three other experiments. Data in B are means (±s.e.m.) of two experiments, each performed using triplicate mice (n=3) for each injection condition.
The mice were further analyzed for changes in plasma phosphate and serum ionized calcium concentrations. […] At the indicated times after injection, blood was withdrawn from the tail vein and the concentrations of plasma phosphate (FIG. 10A) and serum ionized calcium (FIG. 10B) were determined. Serum ionized calcium concentrations were determined using a Chiron Diagnostics Model 634 Ca^++/pH analyzer. Plasma phosphate concentrations were measured using a Phosphorous Liqui-UV assay kit (StanBio Laboratory, Boerne, Tex.).
Wild-type mice were injected subcutaneously with vehicle (0.9% NaCl/0.05% Tween-20), or vehicle containing a PTH peptide at a dose level of 10 to 1000 nmol/kg of body weight. At indicated times after injection, blood was withdrawn from the tail vein, and the amount of cAMP in the resulting plasma was quantified by radioimmuno assay. […]

The test system of assay [4] is opossum kidney (OK) cell line. In words: Phosphate uptake inhibition in opossum kidney cells. The assay is classed as cell-based. The note with it: 10 minute exposure, 1×10^−7 M.
Description: Data are means (±s.e.m.) of two experiments, each performed in duplicate.
Inhibition of phosphate uptake was assessed using the opossum kidney (OK) cell line, which are derived from the renal proximal tubule.
Cells were treated for 10 minutes at 37° C. with media (vehicle) or media containing a peptide ligand (1×10^−7 M); then (t=0), the cells were then rinsed three times with media and incubated in alone at 37° C. for varying times. At each time point, ^32PO4 was then added to the media, and after five minutes of incubation, the cells were washed, lysed, and the lysate was counted for ^32P beta radioactivity by liquid scintillation counting.
Assay [5] in a line: Plasma phosphate in mice (20 nmol/kg). The assay is classed as in vivo. The source says:
(§1) To impair PLC signaling, we replaced alanine at position 1 of M-PTH(1-28) with tryptophan, in accordance with findings of Bisello and colleagues (J Biol Chem 277:38524-30, 2002) showing that such bulky substitutions at this position selectively impair PLC signaling.

Assay [6] concerns NaPi-IIa. In words: NaPi-IIa staining in renal PT cells of injected mice. The note with it: mouse, in vivo.
Description: To help elucidate further the signaling mechanisms by which PTH ligands regulate renal phosphate transport, we developed a derivative of M-PTH(1-28) that is defective for PLC/PKC signaling, yet retains potent cAMP/PKA signaling activity. Such a peptide allows for study of the relative roles of the PKA and PKC signaling pathways in modulating the function and surface expression of the Pi transporters NaPi-IIa and NaPi-IIc in proximal tubule (PT) cells. The analog M-PTH(1-28) (M=Ala^1,Aib^3,Gln^10, Har^11,Trp^14,Arg^19), a potent agonist for cAMP and IP3 signaling pathways, induces, when injected into mice, prolonged hypophosphatemic and hypercalcemic effects.
as §1

In assay [7] the test system is NaPi-IIc. Kind of assay: NaPi-IIc immunostaining in renal PT cells of injected mice. The format is in vivo. The note with it: interval 4 to 6 h.
Description: as §1

Assay [8] has as its system LLC-PK1 cells expressing NaPi-IIc transporter and the rat PTHR. Kind of assay: 32P uptake in LLC-PK1 cells expressing NaPi-IIc transporter and rat PTHR. The format is cell-based.
Description: as §1

For assay [9], the target named is T2, PTHR lacking the extracellular N-terminal (N) domain (delNT) (Homo sapiens, UniProt Q03431).
T2 construct: expressed in transfected cells
T2 sequence (Q03431 with tags, fused parts or gaps limits assumed): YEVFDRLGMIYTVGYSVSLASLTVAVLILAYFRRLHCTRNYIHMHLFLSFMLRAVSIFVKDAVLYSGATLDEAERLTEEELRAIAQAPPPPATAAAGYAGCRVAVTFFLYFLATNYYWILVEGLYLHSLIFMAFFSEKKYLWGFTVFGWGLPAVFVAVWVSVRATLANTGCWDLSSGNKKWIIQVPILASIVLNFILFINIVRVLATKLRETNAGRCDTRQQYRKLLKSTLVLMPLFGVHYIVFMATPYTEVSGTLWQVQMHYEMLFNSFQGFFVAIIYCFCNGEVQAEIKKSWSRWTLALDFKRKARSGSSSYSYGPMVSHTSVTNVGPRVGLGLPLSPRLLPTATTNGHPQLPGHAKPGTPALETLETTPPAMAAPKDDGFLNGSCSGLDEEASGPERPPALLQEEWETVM
Kind of assay: cAMP activity in cells expressing PTHR lacking the N domain (delNT). The assay is classed as cell-based.

For assay [10], the target named is T3, hPTHR (Homo sapiens, UniProt Q03431).
T3 sequence (Q03431 27-593): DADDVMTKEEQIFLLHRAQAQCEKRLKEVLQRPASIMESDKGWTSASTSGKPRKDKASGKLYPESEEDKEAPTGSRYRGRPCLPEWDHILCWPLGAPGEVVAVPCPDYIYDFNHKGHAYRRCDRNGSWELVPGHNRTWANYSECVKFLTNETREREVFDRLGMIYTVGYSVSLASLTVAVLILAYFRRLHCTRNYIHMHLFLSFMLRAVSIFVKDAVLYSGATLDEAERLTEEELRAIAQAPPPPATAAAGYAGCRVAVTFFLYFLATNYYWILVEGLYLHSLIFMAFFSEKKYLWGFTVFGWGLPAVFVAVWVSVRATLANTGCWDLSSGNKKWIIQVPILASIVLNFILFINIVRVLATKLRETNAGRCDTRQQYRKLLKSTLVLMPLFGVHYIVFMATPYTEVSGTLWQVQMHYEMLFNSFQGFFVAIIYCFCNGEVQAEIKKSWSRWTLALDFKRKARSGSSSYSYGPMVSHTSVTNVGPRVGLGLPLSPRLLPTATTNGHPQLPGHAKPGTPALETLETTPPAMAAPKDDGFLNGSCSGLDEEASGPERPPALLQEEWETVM
In words: Radioligand dissociation from PTHR in HKRK-B7 membranes with or without GTPγS. The format is binding. The arrangement: expressed in transfected cells.
Description: At each time point, aliquots were removed from the reaction tubes and immediately subjected to rapid vacuum filtration using a 96-well vacuum filtration plate to separate bound from free radioactivity. Non-specific binding was determined in tubes containing the unlabeled ligand (5×10^−7 M) during both the pre-incubation and dissociation phases. The specifically bound radioactivity (SB) at each time point was then expressed as the percent of the specific binding observed at t=0. […] Curves were fit to the data using either a two-phase (FIGS. 1A and 1B) or single phase (FIG. 1C) exponential decay equation. […]
Reactions contained a total membrane protein concentration of 20 to 100 μg/mL, and a total radioactivity concentration of approximately 150,000 cpm/ml. […] At the end of the reaction, bound and free radioligand were separated by vacuum filtration using a 96-well vacuum filter plate and vacuum filter apparatus (Multi-Screen system with Durapore HV, 0.65 μM filters; Millipore Corp., Milford, Mass.); the air-dried filters were then detached from the plate and counted for gamma radioactivity using a gamma counter.
These studies were performed as bulk reactions in 15 mL round-bottom polystyrene snap-cap tubes (Falcon) (total reaction volume=5.0 ml). […] The specifically bound radioactivity at each time point was calculated as a percent of the radioactivity specifically bound at t=0.

Assay [11] addresses T4, rat PTHR (Rattus norvegicus, UniProt P25961).
T4 sequence (P25961 27-591): T1 sequence (P25961 27-591)
Kind of assay: GTPγS inhibition of equilibrium radioligand binding, ROS17/2.8 membranes. Also on record: the rat osteoblastic cell line ROS17/2.8, which endogenously expresses the rat PTHR; endogenous in cells; host or cells: ROS 17/2.8 rat osteosarcoma cells (membranes or intact cells). Here is the method: FIGS. 2A and 2B are graphs showing GTPγS sensitivity of PTH and PTHrP analog binding to the human and rat PTHRs. Radioligand analog binding to the PTHR in membranes prepared from HKRK-B7 (FIG. 2A) or ROS 17/2.8 cells (FIG. 2B) was assessed under near-equilibrium conditions in the absence or presence of varying concentrations of GTPγS. Data are expressed as a percent of radioactivity specifically bound (SB) in the absence of GTPγS. […] The radioligands studied were ^125I-[Nle^8,21,Tyr^34]PTH(1-34)NH2 (SEQ ID NO:123); [Tyr^36]PTHrP(1-36)NH2 (SEQ ID NO:124); [Ile^5,Tyr^36]PTHrP(1-36)NH2 (SEQ ID NO:125) and [Aib^1,3,Nle^8,Gln^10,Har^11,Ala^12,Trp^14,Tyr^15]hPTH(1-15)NH2 (SEQ ID NO:126).
The effects of GTPγS on the binding of these radioligands to the PTHR under approximate-equilibrium conditions was assessed. by incubating with cell membranes for 90 minutes in the absence or presence of GTPγS at varying concentrations. […]
Binding reactions performed with ^125I-[Aib^1,3,M]PTH(1-15) radioligand were assembled and incubated in the wells of the 96-well, Multi-Screen vacuum filtration plates. […] For both radioligands, the non-specific binding was determined in reactions containing a saturating concentration of the unlabeled analog of the radioligand. The specifically bound radioactivity was calculated as a percent of the radioactivity specifically bound in the absence of a competing ligand or GTPγS.

As to `CC[C@H](C)[C@H](NC(=O)[C@H](CCC(=O)O)NC(=O)C(C)(C)NC(=O)[C@@H](NC(=O)[C@H](C)N)C(C)C)C(=O)N[C@@H](CCC(N)=O)C(=O)N[C@@H](CC(C)C)C(=O)N[C@@H](CCSC)C(=O)N[C@@H](Cc1c[nH]cn1)C(=O)N[C@@H](CCC(N)=O)C(=O)N[C@@H](CCCCNC(=N)N)C(=O)N[C@@H](C)C(=O)N[C@@H](CCCCN)C(=O)N[C@@H](Cc1c[nH]c2ccccc12)C(=O)N[C@@H](CC(C)C)C(=O)N[C@@H](CC(N)=O)C(=O)N[C@@H](CO)C(=O)N[C@@H](CCSC)C(=O)N[C@@H](CCCNC(=N)N)C(=O)N[C@@H](CCCNC(=N)N)C(=O)N[C@H](C(=O)N[C@@H](CCC(=O)O)C(=O)N[C@@H](Cc1c[nH]c2ccccc12)C(=O)N[C@@H](CC(C)C)C(=O)N[C@@H](CCCNC(=N)N)C(=O)N[C@@H](CCCCN)C(=O)N[C@@H](CCCCN)C(=O)N[C@@H](CC(C)C)C(N)=O)C(C)C` [[A^1,Aib^3,M]-PTH(1-28), [Ala^1,12,Aib^3,Gln^10,homoarginine^11,Trp^14,Arg^19]human(h)PTH(1-28)NH2] (H-AV[Aib]EIQLMHQ[hArg]AKWLNSMRRVEWLRKKL-NH2; N-terminus assumed), in [1], the “maximum cAMP response (ligand with IBMX 10 minutes, no wash-out)” value came to 71±1 pmole/well. Besides, the “dose producing comparable increase in plasma cAMP” value in assay [2] is 50 nmol/kg. In addition, in assay [3], the “duration of serum calcium and plasma phosphate responses, in words” value is reported as “more prolonged than those to hPTH(1-34)NH2”. Besides, in [4], the “duration of phosphate uptake inhibition, in words” value is recorded as “dramatically prolonged inhibitory effect on phosphate uptake”. Also, in assay [5], the “time of maximal suppression of plasma phosphate” value came to 2 h and the “time of recovery of plasma phosphate to vehicle control levels” value was 6 h. Moreover, the “apical and cytoplasmic NaPi-IIa staining, in words” value in assay [6] is listed as “prolonged reductions in NaPi-IIa immunoreactivity; also recorded: remained reduced for at least six hours”. Besides, in [7], the “NaPi-IIc immunostaining, in words” value is “reduced”. In addition, in assay [8], the “^32P uptake, in words” value is recorded as “inhibited”.

As to PTHrP(1-14) (AVSEHQLLHDKGKS), the “cAMP potency on delNT compared with PTH counterparts, in words” value in assay [9] was “much less potent for cAMP activity”.

For “^125I[Tyr^36]PTHrP(1-36)NH2 [^125I-PTHrP(1-36)]”, in [10] (absence of GTPγS), the “fraction of complexes stable, decaying slowly” value came to 68%. Moreover, the “fraction of complexes unstable, decaying rapidly” value in assay [10] (with GTPγS) was found to be 72%. Besides, in assay [11], the “sensitivity of binding to GTPγS, in words” value was “strongly inhibited”.
